One experiment has as its target NET (Homo sapiens, UniProt P23975). Description: fluorescence-based norepinephrine uptake assay (Tsuruda et al. 2010). The class given is cell-based. The conditions noted are these: norepinephrine reuptake inhibition, fluorescence-based assay (data indicated by an asterisk); for IC50: read-out: NET pIC50 (converted).
For a further experiment, the target named is SERT (Homo sapiens, UniProt P31645). Description: fluorescence-based serotonin uptake assay (Tsuruda et al. 2010). It counts as cell-based. Conditions: serotonin reuptake inhibition, fluorescence-based assay (data indicated by an asterisk); for IC50: read-out: SERT pIC50 (converted).

Marks after values point to notes of the source that are not given here. Where only a bound is given, the exact number is not on record here.

Sequence of NET (P23975 whole entry): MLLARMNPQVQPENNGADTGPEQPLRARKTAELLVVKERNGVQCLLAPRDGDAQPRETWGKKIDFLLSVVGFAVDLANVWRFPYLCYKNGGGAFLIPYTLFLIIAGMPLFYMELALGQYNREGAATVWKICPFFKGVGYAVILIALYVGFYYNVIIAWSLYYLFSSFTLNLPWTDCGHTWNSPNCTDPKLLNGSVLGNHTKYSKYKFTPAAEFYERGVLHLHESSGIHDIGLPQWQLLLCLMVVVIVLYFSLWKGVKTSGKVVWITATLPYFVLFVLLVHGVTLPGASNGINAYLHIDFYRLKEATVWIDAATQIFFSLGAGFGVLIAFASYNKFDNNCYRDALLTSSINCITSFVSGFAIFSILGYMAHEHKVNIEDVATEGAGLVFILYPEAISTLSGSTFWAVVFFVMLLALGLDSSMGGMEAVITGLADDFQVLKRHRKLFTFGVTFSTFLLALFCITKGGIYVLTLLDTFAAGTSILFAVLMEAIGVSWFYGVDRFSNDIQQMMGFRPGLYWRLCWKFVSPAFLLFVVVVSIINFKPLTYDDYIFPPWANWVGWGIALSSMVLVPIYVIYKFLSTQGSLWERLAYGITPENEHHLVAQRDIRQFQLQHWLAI
Sequence of SERT (P31645 whole entry, species assumed): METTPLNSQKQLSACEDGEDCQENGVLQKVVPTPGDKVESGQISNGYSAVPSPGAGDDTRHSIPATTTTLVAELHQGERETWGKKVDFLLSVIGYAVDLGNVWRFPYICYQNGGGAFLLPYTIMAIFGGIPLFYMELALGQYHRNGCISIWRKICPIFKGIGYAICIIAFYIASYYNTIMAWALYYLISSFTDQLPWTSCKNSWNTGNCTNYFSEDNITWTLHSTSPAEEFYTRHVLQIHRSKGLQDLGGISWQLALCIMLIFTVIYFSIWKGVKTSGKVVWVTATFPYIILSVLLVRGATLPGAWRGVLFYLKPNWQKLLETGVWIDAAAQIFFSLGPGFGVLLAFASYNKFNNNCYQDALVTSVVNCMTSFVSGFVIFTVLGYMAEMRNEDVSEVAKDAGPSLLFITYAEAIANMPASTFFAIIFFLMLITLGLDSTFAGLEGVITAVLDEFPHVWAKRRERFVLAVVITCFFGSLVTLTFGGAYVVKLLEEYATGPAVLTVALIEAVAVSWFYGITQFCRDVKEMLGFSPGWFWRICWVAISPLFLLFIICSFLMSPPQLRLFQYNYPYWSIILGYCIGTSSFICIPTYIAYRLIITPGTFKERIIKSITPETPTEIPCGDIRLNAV

With `CCSC[C@H](Oc1ccc(Cl)cc1Cl)[C@H]1CCNC1.O=C(O)C(F)(F)F` [Example 17-7], on NET, the “NET pIC50” value is listed as “≧8.0*”. At SERT, the “SERT pIC50” value is “≧8.0*”.

Turning to `CC(C)OCC(Oc1cccc(Cl)c1C(F)(F)F)C1CCNC1` [Example 9-20, (S)-3-[(R)-1-(3-Chloro-2-trifluoromethyl-phenoxy)-2-isopropoxycthyl]pyrrolidine], the IC50 is not above 10 nM on NET and not above 100 nM at SERT.

Regarding `CCSC[C@H](Oc1cccc(Cl)c1C)[C@H]1CCNC1.O=C(O)C(F)(F)F` [Example 17-5], on NET, the “NET pIC50” value is reported as “≧8.0*”. The “SERT pIC50” value at SERT is reported as “≧8.0*”.

As to `CC(C)SC[C@@H](Oc1cccc(Cl)c1Cl)[C@H]1CCNC1` [Example 19-2, (S)-3-[(S)-1-(2,3-Dichlorophenoxy)-2-isopropylsulfanylethyl]pyrrolidine], the IC50 at NET and on SERT was not above 10 nM in each case.

With `CSC[C@H](Oc1ccc(Cl)cc1C)[C@H]1CCNC1` [Example 14, (S)-3-[(R)-1-(4-Chloro-2-methylphenoxy)-2-methylsulfanylethyl]pyrrolidine], the IC50 on NET and on SERT was not above 10 nM each time.

On to `CCOC[C@H](Oc1ccc(F)cc1)[C@H]1CCNC1` [Example 7-5, (S)-3-[(R)-2-Ethoxy-1-(4-fluorophenoxy)ethyl]pyrrolidine], for which the IC50 at NET and on SERT was not above 100 nM each time.

On to `CCSC[C@H](Oc1cccc(Cl)c1Cl)[C@H]1CCNC1.O=C(O)C(F)(F)F` [Example 17-1], for which the “NET pIC50” value at NET was “≧8.0*”. Moreover, on SERT, the “SERT pIC50” value is recorded as “≧8.0*”.

In the case of `CCSC[C@@H](Oc1cccc(Cl)c1Cl)[C@H]1CCNC1.O=C(O)C(F)(F)F` [Example 17-2], the “NET pIC50” value on NET is given as “≧8.0*”. The “SERT pIC50” value on SERT is “≧8.0*”.

As for `CCOC[C@H](Oc1ccc(Cl)cc1)[C@H]1CCNC1` [Example 7-4, (S)-3-[(R)-1-(4-Chlorophenoxy)-2-ethoxyethyl]pyrrolidine], the IC50 on NET and at SERT was not above 10 nM in each case.

Consider `CC(C)OC[C@@H](Oc1ccc(Cl)cc1Cl)[C@H]1CCNC1` [Example 9-23, (S)-3-[(S)-1-(2,4-Dichlorophenoxy)-2-isopropoxyethyl]pyrrolidine], for which the IC50 at NET is not above 100 nM; at SERT, not above 10 nM.

Source of the values: patent publication US8455665B2, “3-phenoxymethylpyrrolidine compounds” (Theravance, Inc., priority 2009, dated 2013).
